Legend:
[1] = tested on: genotype 1a H-77 replicon; assay: HCV-1a replicon potency in RLuc-1 cells, bioluminescence; type: cell-based; details: for HCV-1a Replicon Selectivity Index: CC50/EC50, genotype 1a replicon; for EC50: Hepatitis C virus, 72 h, read-out: HCV-1a Replicon EC50 (μM)
[2] = Cytotoxicity in HCV-1a replicon cells, Promega CellTiter-Glo cell viability assay
HIV-2 strain (ROD) = assay: Inhibition of replication of HIV-2 (ROD strain) in MT-4 cells, MTT assay; type: cell-based; details: Human immunodeficiency virus 2, MT4, 120 h; MT-4 cells, MTT assay, five days after infection, 50% protection from cytopathic effect; read-out: EC50 (μM) HIV-2 (ROD)
HIV-1 strain IIIB = assay: Inhibition of replication of HIV-1 (IIIB strain) in MT-4 cells, MTT assay; type: cell-based; details: Human immunodeficiency virus 1, IIIB, MT4, 120 h; MT-4 cells, MTT assay, five days after infection, 50% protection from cytopathic effect; read-out: EC50 (μM) HIV-1 (IIIB)
in vitro = details: human

Structure (SMILES)	HCV-1a Replicon Selectivity Index [1]	EC50 [1] [µM]	CC50 at 72 h [2] [µM]	EC50 (HIV-2 strain (ROD)) [µM]	EC50 (HIV-1 strain IIIB) [µM]	CC50 (in vitro) [µM]
Nc1nc(N2CC[C@@H](NC(=O)COc3ccc(Cl)cc3)C2)c2nc(CCc3ccc(F)cc3)sc2n1 [Example 143, 5-amino-2-[2-(4-fluorophenyl)ethyl]-7-(3-(R)-[2-(4-chlorophenoxy)-acetylamino]pyrrolidin-1-yl)-thiazolo[5,4-d]pyrimidine]	0.7	> 44.4	30.4	–	–	–
Nc1nc(N2CCN(S(=O)(=O)Cc3ccccc3)CC2)c2nc(CCc3ccc(F)cc3)sc2n1 [Example 137, 5-amino-2-[2-(4-fluorophenyl)ethyl]-7-[4-phenylmethanesulfonylpiperazin-1-yl]-thiazolo[5,4-d]pyrimidine]	0.8	26.9	21.8	–	–	–
Nc1nc(N2CCN(C(=O)c3ccc(Cl)cc3)CC2)c2nc(CCc3cccs3)sc2n1 [Example 156, 5-amino-2-(2-thiophen-2-ylethyl)-7-(4-(4-chloro-benzoyl)piperazin-1-yl)thiazolo[5,4-d]pyrimidine]	1.5	20.7	30.7	–	–	–
COc1cccc(C(=O)N2CCN(c3nc(N)nc4[nH]c(-c5ccc(F)cc5)nc34)CC2)c1 [Example 402, (4-(2-amino-8-(4-fluorophenyl)-9H-purin-6-yl)piperazin-1-yl)(3-methoxyphenyl)methanone]	–	> 44.4	> 44.4	–	–	–
Nc1nc(N2CCN(C(=O)COc3ccc(Cl)cc3)CC2)c2nc(C3CCCCC3)sc2n1 [Example 120, 5-amino-7-[4-(4-chlorophenoxyacetyl)piperazin-1-yl]-2-cyclohexylthiazolo[5,4-d]pyrimidine]	2.1	6.4	13.4	–	–	–
Nc1nc(SCc2ccccc2)c2nc(-c3ccc(F)cc3)sc2n1 [Example 28, 7-(benzylthio)-2-(4-fluorophenyl)thiazolo[5,4-d]pyrimidin-5-amine]	–	–	–	> 339	> 339	> 339
CC(=O)N1CCN(c2nc(N)nc3[nH]c(-c4ccc(F)cc4)nc23)CC1 [Example 408, 1-(4-(2-amino-8-(4-fluorophenyl)-9H-purin-6-yl)piperazin-1-yl)ethanone]	–	> 44.4	> 44.4	–	–	–
Nc1nc(N2CCN(C(=O)COc3ccc(Cl)cc3)CC2)c2cc(-c3ccccc3)sc2n1 [Example 329, 1-(4-(2-amino-6-phenylthieno[2,3-d]pyrimidin-4-yl)piperazin-1-yl)-2-(4-chlorophenoxy)ethanone]	3.8	11.8	> 44.4	–	–	–
Nc1nc(N2CCN(c3ccc(Cl)cc3)CC2)c2nc(-c3ccc(F)cc3)[nH]c2n1 [Example 414, 6-(4-(4-chlorophenyl)piperazin-1-yl)-8-(4-fluorophenyl)-9H-purin-2-amine]	1.2	7.3	8.7	–	–	–
Nc1nc(N2CCOCC2)c2cc(-c3ccc(F)cc3)sc2n1 [Example 364, 6-(4-fluorophenyl)-4-morpholinothieno[2,3-d]pyrimidin-2-amine]	–	–	–	> 239	> 239	239
Nc1nc(N2CCN(c3nccs3)CC2)c2nc(-c3ccc(F)cc3)sc2n1 [Example 36, 2-(4-fluorophenyl)-7-(4-(thiazol-2-yl)piperazin-1-yl)thiazolo[5,4-d]pyrimidin-5-amine]	–	–	–	> 36.4	> 29	36.4
CSc1nc2c(N3CCN(C(=O)COc4ccc(Cl)cc4)CC3)nc(N)nc2[nH]1 [Example 424, 1-(4-(2-amino-8-(methylthio)-9H-purin-6-yl)piperazin-1-yl)-2-(4-chlorophenoxy)ethanone]	>1.3	34.8	> 44.4	–	–	–
Cc1cccc(NC(=O)N2CCN(c3nc(N)nc4sc(C(C)c5ccc(F)cc5)nc34)CC2)c1 (stereo not shown) [Example 68, 4-(5-amino-2-(1-(4-fluorophenyl)ethyl)thiazolo[5,4-d]pyrimidin-7-yl)-N-m-tolylpiperazine-1-carboxamide]	–	–	–	> 30.3	> 30.3	30.3
COc1ccc(OCC(=O)N2CCN(c3nc(N)nc4sc(CCc5ccc(F)cc5)nc34)CC2)cc1 [Example 50, 1-(4-(5-amino-2-(4-fluorophenethyl)thiazolo[5,4-d]pyrimidin-7-yl)piperazin-1-yl)-2-(4-methoxyphenoxy)ethanone]	–	–	–	> 212	3.5	212
Cc1cccc(NC(=O)N2CCN(c3nc(N)nc4oc(CCc5ccc(F)cc5)nc34)CC2)c1 [Example 196, 5-amino-2-[2-(4-fluorophenyl)ethyl]-7-(4-m-tolylcarbamoylpiperazin-1-yl)-oxazolo[5,4-d]pyrimidine]	1.6	15.6	24.5	–	–	–
CCOc1nc(N)nc2sc(-c3ccc(F)cc3)nc12 [Example 30, 7-ethoxy-2-(4-fluorophenyl)thiazolo[5,4-d]pyrimidin-5-amine]	–	–	–	> 373	> 373	> 373

Structure (SMILES)	HCV-1a Replicon Selectivity Index [1]	EC50 [1] [µM]	CC50 at 72 h [2] [µM]	EC50 (HIV-2 strain (ROD)) [µM]	EC50 (HIV-1 strain IIIB) [µM]	CC50 (in vitro) [µM]
Nc1nc(N2CCN(C(=O)COc3ccc(Cl)cc3)CC2)c2nc(-c3ccc(F)cc3)oc2n1 [Example 169, 1-(4-(5-amino-2-(4-fluorophenyl)oxazolo[5,4-d]pyrimidin-7-yl)piperazin-1-yl)-2-(4-chlorophenoxy)ethanone]	–	–	–	> 50	> 50	> 50
CCOc1nc(N)nc2sc(Cc3ccc(F)cc3)nc12 [Example 31, 7-ethoxy-2-(4-fluorobenzyl)thiazolo[5,4-d]pyrimidin-5-amine]	–	–	–	> 411	> 411	> 411
Cc1ccc(NC(=O)N2CCN(c3nc(N)nc4sc(-c5ccc(F)cc5)nc34)CC2)cc1 [Example 42, 4-(5-amino-2-(4-fluorophenyl)-thiazolo[5,4-d]pyrimidin-7-yl)-N-p-tolylpiperazine-1-carboxamide]	–	–	–	0.98	1.35	28.2
Nc1nc(N2CCNCC2)c2nc(-c3ccc(F)cc3)sc2n1 [Example 25, 2-(4-fluorophenyl)-7-(piperazin-1-yl)-thiazolo[5,4-d]pyrimidin-5-amine]	–	–	–	> 1.8	> 1.8	1.8
Cc1cccc(NC(=O)N2CCN(c3nc(N)nc4sc(Cc5ccc(F)cc5)nc34)CC2)c1 [Example 44, 4-(5-amino-2-(4-fluorobenzyl)thiazolo[5,4-d]pyrimidin-7-yl)-N-m-tolylpiperazine-1-carboxamide]	–	–	–	0.85	4.02	10.1
Nc1nc(N2CCN(S(=O)(=O)c3ccccc3)CC2)c2nc(-c3ccc(F)cc3)sc2n1 [Example 41, 2-(4-fluorophenyl)-7-(4-(phenylsulfonyl)piperazin-1-yl)thiazolo[5,4-d]pyrimidin-5-amine]	–	–	–	> 237	> 237	237
Nc1nc(N2CCOCC2)c2nc(-c3ccc(F)cc3)sc2n1 [Example 33, 2-(4-fluorophenyl)-7-morpholino-thiazolo[5,4-d]pyrimidin-5-amine]	–	–	–	141	> 207	235
Cc1cccc(N2CCN(c3nc(N)nc4sc(-c5ccc(F)cc5)nc34)CC2)c1 [Example 35, 2-(4-fluorophenyl)-7-(4-m-tolylpiperazin-1-yl)-thiazolo[5,4-d]pyrimidin-5-amine]	–	–	–	> 38.5	> 234	234
CCCCCN1CCN(c2nc(N)nc3sc(-c4ccc(F)cc4)nc23)CC1 [Example 37, 2-(4-fluorophenyl)-7-(4-pentylpiperazin-1-yl)thiazolo[5,4-d]pyrimidin-5-amine]	–	–	–	212	> 312	> 312
Nc1nc(N2CCN(Cc3ccccc3)CC2)c2nc(-c3ccc(F)cc3)sc2n1 [Example 39, 7-(4-benzylpiperazin-1-yl)-2-(4-fluorophenyl)thiazolo[5,4-d]pyrimidin-5-amine]	–	–	–	> 45.2	> 45.2	45.2
Cc1cccc(NC(=O)N2CCN(c3nc(N)nc4sc(-c5ccc(F)cc5)nc34)CC2)c1 [Example 43, 4-(5-amino-2-(4-fluorophenyl)thiazolo[5,4-d]pyrimidin-7-yl)-N-m-tolylpiperazine-1-carboxamide]	–	–	–	0.39	0.4	15.8
Nc1nc(N2CCN(C(=O)OCc3ccccc3)CC2)c2nc(-c3ccc(F)cc3)sc2n1 [Example 40, benzyl-4-(5-amino-2-(4-fluorophenyl)thiazolo[5,4-d]pyrimidin-7-yl)piperazine-1-carboxylate]	–	–	–	> 241	> 241	241
CSc1nc(N)nc2sc(-c3ccc(F)cc3)nc12 [Example 16, 2-(4-fluorophenyl)-7-(methylthio)thiazolo[5,4-d]pyrimidin-5-amine]	–	–	–	> 82.1	> 233	82.1
COCCOc1nc(N)nc2sc(-c3ccc(F)cc3)nc12 [Example 29, 2-(4-fluorophenyl)-7-(2-methoxyethoxy)-thiazolo[5,4-d]pyrimidin-5-amine]	–	–	–	220	> 390	> 390
Nc1nc(N2CCOCC2)c2nc(Cc3ccc(F)cc3)sc2n1 [Example 34, 2-(4-fluorobenzyl)-7-morpholino-thiazolo[5,4-d]pyrimidin-5-amine]	–	–	–	> 362	> 362	> 362
Nc1nc(N2CCN(CC(=O)N3CCOCC3)CC2)c2nc(-c3ccc(F)cc3)sc2n1 [Example 38, 2-(4-(5-amino-2-(4-fluorophenyl)thiazolo[5,4-d]pyrimidin-7-yl)piperazin-1-yl)-1-morpholinoethanone]	–	–	–	> 201	> 251	201

Source: patent US9730944B2, “Antiviral activity of novel bicyclic heterocycles” (priority 2010, dated 2017)
